This is an account of results in US12187662B2, “FOXM1 inhibitor compositions and methods of using the same” (The Board of Trustees of the University of Illinois, priority 2018, dated 2025).

pIC50: −log10 of the molar value. Like-named read-outs stand apart in the source and are kept apart here.

The test system of one series is MCF7 cells. Put plainly: Cell proliferation assay (WST-1), MCF7. The format is cell-based, human. The note with it: read-out: IC50 MCF7. As to the method: All cells were tested for mycoplasma using Real-Time PCR Mycoplasma Detection Kit (Akron Biotech, Boca Raton, FL).
All assays were performed in triplicate.
On the technique in general: Tetrazolium assays rely on reduction of a dye to a coloured formazan, in cell work by metabolically active cells.

The nature of series [1]: Pharmacokinetic studies in mice after single s.c. or oral dose.
Description: For s.c. injection, each compound was dissolved in DMSO and then mixed with corn oil for a total injection volume of 100 μL (10% DSMO+90% corn oil) per mouse. For oral gavage, compounds were administered in a 200 μL formulation of 9/0.5/0.5/90 parts of PEG400/Tween80/Povidone/0.5% Carboxymethylcellulose. […] Compounds were quantified by LC-MS/MS at the University of Illinois Metabolomics Core Facility. The data were fitted to a non-compartment model.
Setting [2] is: Homo sapiens, MCF7, inhibition of cell proliferation.
The mark [3] stands for this setting: inhibition of cell proliferation.

Regarding `c1cc(C(=C2C3CC4CC(C3)CC2C4)c2ccc(OCCCCN3CCCCC3)cc2)ccc1OCCCCN1CCCCC1` [NB-120, 1,1′-((((((5r,7r)-adamantan-2-ylidene)methylene)bis(4,1-phenylene))bis(oxy))bis(butane-4,1-diyl))dipiperidine], the pIC50 (in general, −log10 of the IC50, conventionally taken in molar units) in the series with MCF7 cells (setting [2]) was 6.05.

`c1cc(C(=C2C3CC4CC(C3)CC2C4)c2ccc(OCCCCCCN3CCC3)cc2)ccc1OCCCCCCN1CCC1` [NB-133, 1,1′-((((((5r,7r)-adamantan-2-ylidene)methylene)bis(4,1-phenylene))bis(oxy))bis(hexane-6,1-diyl))bis(azetidine)]: the pIC50 with MCF7 cells (setting [2]) was 6.10. On to `OCC[N+]1(CCCCCCOc2ccc(C(=C3C4CC5CC(C4)CC3C5)c3ccc(OCCCCCC[N+]4(CCO)CCCCC4)cc3)cc2)CCCCC1` [NB-141, 1,1′-((((((5r,7r)-adamantan-2-ylidene)methylene)bis(4,1-phenylene))bis(oxy))bis(hexane-6,1-diyl))bis(1-(2-hydroxyethyl)piperidin-1-ium) diiodide], for which, in the series on MCF7 cells (setting [2]), the pIC50 was 5.44. Still for that read-out and setting: the value for `c1cc(C(=C2C3CC4CC(C3)CC2C4)c2ccc(OCCCCN3CCCCCC3)cc2)ccc1OCCCCN1CCCCCC1` [NB-121, 1,1′-((((((5r,7r)-adamantan-2-ylidene)methylene)bis(4,1-phenylene))bis(oxy))bis(butane-4,1-diyl))bis(azepane)] was 5.80. Consider `OC1CN(CCCCCCOc2ccc(C(=C3C4CC5CC(C4)CC3C5)c3ccc(OCCCCCCN4CC(O)C4)cc3)cc2)C1` [NB-145, 1,1′-((((((5r,7r)-adamantan-2-ylidene)methylene)bis(4,1-phenylene))bis(oxy))bis(hexane-6,1-diyl))bis(azetidin-3-ol)], for which the negative logarithm of the IC50 (pIC50) with MCF7 cells (setting [2]) is 6.05. Besides, the “PK p.o. AUC0-48” value in series [1] (mice, 40 mg/kg p.o.) was “too low to measure”. For `CCN(CCO)CCCCCCOc1ccc(C(=C2C3CC4CC(C3)CC2C4)c2ccc(OCCCCCCN(CC)CCO)cc2)cc1` [NB-130, 2,2′-(((((((5r,7r)-adamantan-2-ylidene)methylene)bis(4,1-phenylene))bis(oxy))bis(hexane-6,1-diyl))bis(ethylazanediyl))bis(ethan-1-ol)], the pIC50 in the series on MCF7 cells (setting [2]) was 5.92. For the same molecule, the “PK p.o. AUC0-48” value in series [1] (mice, 40 mg/kg p.o.) was “too low to measure”. With `CC1(O)C[N+](C)(CCCCCCOc2ccc(C(=C3C4CC5CC(C4)CC3C5)c3ccc(OCCCCCC[N+]4(C)CC(C)(O)C4)cc3)cc2)C1` (stereo not drawn) [NB-144, 1,1′-((((((5r,7r)-adamantan-2-ylidene)methylene)bis(4,1-phenylene))bis(oxy))bis(hexane-6,1-diyl))bis(3-hydroxy-1,3-dimethylazetidin-1-ium) diiodide], the pIC50 in the series with MCF7 cells (setting [2]) was 5.74. For `C[N+]1(CCCCCCOc2ccc(C(=C3C4CC5CC(C4)CC3C5)c3ccc(OCCCCCC[N+]4(C)CCC(O)CC4)cc3)cc2)CCC(O)CC1` (stereo not drawn) [NB-136, 1,1′-((((((5r,7r)-adamantan-2-ylidene)methylene)bis(4,1-phenylene))bis(oxy))bis(hexane-6,1-diyl))bis(4-hydroxy-1-methylpiperidin-1-ium) diiodide], the pIC50 in the series with MCF7 cells (setting [2]) is 6.00.

Regarding `Clc1ccc(C(=C2C3CC4CC(C3)CC2C4)c2ccc(OCCCCCCN3CCCCC3)cc2)cc1` [NB-118, 1-(6-(4-((Z)-((5S,7S)-Adamantan-2-ylidene)(4-chlorophenyl)methyl)phenoxy)hexyl)piperidine], the pIC50 in the series with MCF7 cells (setting [2]) was 5.36. For `OC[C@@H]1CCCN1CCCCCCOc1ccc(C(=C2C3CC4CC(C3)CC2C4)c2ccc(OCCCCCCN3CCC[C@H]3CO)cc2)cc1` [NB-138, ((2S,2'S)-((((((5r,7r)-adamantan-2-ylidene)methylene)bis(4,1-phenylene))bis(oxy))bis(hexane-6,1-diyl))bis(pyrrolidine-1,2-diyl))dimethanol], the pIC50 in the series on MCF7 cells (setting [2]) is 6.15. Moreover, in series [1] (mice, 40 mg/kg p.o.), the “PK p.o. AUC0-48” value was found to be 1.84 µM·h and the “PK p.o. t1/2” value was found to be 25.0 h. As for “1-(6-(4-((Z)-((5S,7S)-adamantan-2-ylidene)(4-chlorophenyl)methyl)phenoxy)hexyl)-1-methylazepan-1-ium iodide [NB-85]”, the negative-log IC50 (pIC50) with MCF7 cells (setting [3]) was 5.01. With `c1cc(C(=C2C3CC4CC(C3)CC2C4)c2ccc(OCCCCCN3CCCCCC3)cc2)ccc1OCCCCCN1CCCCCC1` [NB-123, 1,1′-((((((5r,7r)-adamantan-2-ylidene)methylene)bis(4,1-phenylene))bis(oxy))bis(pentane-5,1-diyl))bis(azepane)], in the series on MCF7 cells (setting [2]), the pIC50 is 6.00. `C[N+](CCO)(CCO)CCCCCCOc1ccc(C(=C2C3CC4CC(C3)CC2C4)c2ccc(OCCCCCC[N+](C)(CCO)CCO)cc2)cc1` [NB-135, 6,6′-(((((5r,7r)-adamantan-2-ylidene)methylene)bis(4,1-phenylene))bis(oxy))bis(N,N-bis(2-hydroxyethyl)-N-methylhexan-1-aminium) diiodide]: the pIC50 in the series on MCF7 cells (setting [2]) is 5.68.

Turning to `OC1CCN(CCCCCCOc2ccc(C(=C3C4CC5CC(C4)CC3C5)c3ccc(OCCCCCCN4CCC(O)CC4)cc3)cc2)CC1` [NB-132, 1,1′-((((((5r,7r)-adamantan-2-ylidene)methylene)bis(4,1-phenylene))bis(oxy))bis(hexane-6,1-diyl))bis(piperidin-4-ol)], the pIC50 in the series with MCF7 cells (setting [2]) was 5.80.

In the case of `CN1CC[N+](C)(CCCCCCOc2ccc(C(=C3C4CC5CC(C4)CC3C5)c3ccc(OCCCCCC[N+]4(C)CCN(C)CC4)cc3)cc2)CC1` [NB-69, 1,1′-((((((5r,7r)-adamantan-2-ylidene)methylene)bis(4,1-phenylene))bis(oxy))bis(hexane-6,1-diyl))bis(1,4-dimethylpiperazin-1-ium) dimethanesulfonate], the pIC50 in the series with MCF7 cells (setting [2]) is 5.22.

As to “1-(6-(4-((Z)-((5S,7S)-adamantan-2-ylidene)(4-chlorophenyl)methyl)phenoxy)hexyl)-1H-imidazole [NB-60]”, the negative logarithm of the IC50 (pIC50) in the series on MCF7 cells (setting [3]) was 4.80. Consider `C[n+]1ccn(CCCCCCOc2ccc(C(=C3C4CC5CC(C4)CC3C5)c3ccc(Cl)cc3)cc2)c1` [NB-62, 1-(6-(4-((Z)-((5S,7S)-adamantan-2-ylidene)(4-chlorophenyl)methyl)phenoxy)hexyl)-3-methyl-1H-imidazol-3-ium iodide], for which, in the series with MCF7 cells (setting [2]), the pIC50 is 5.26. Besides, the half-life (in general, how long it takes for the measured level to halve) in series [1] (female, CD-1, mouse, plasma, sc, 40 mg/kg) was 36.8 h. The AUC(0-t) (in general, exposure summed from dosing to a finite time, without extrapolation to infinity) in series [1] (female, CD-1, mouse, plasma, sc, 40 mg/kg, PK s.c. AUC0-48, mice, 40 mg/kg s.c.) was determined as 150 µM·h. For the same molecule, the “PK p.o. AUC0-48” value in series [1] (mice, 40 mg/kg p.o.) is given as “too low to measure”.

Regarding `OCC[N+]1(CCCCCCOc2ccc(C(=C3C4CC5CC(C4)CC3C5)c3ccc(OCCCCCC[N+]4(CCO)CCCC4)cc3)cc2)CCCC1` [NB-140, 1,1′-((((((5r,7r)-adamantan-2-ylidene)methylene)bis(4,1-phenylene))bis(oxy))bis(hexane-6,1-diyl))bis(1-(2-hydroxyethyl)pyrrolidin-1-ium) diiodide], the pIC50 in the series with MCF7 cells (setting [2]) is 5.80.

For the molecule `CC1(O)CN(CCCCCCOc2ccc(C(=C3C4CC5CC(C4)CC3C5)c3ccc(OCCCCCCN4CC(C)(O)C4)cc3)cc2)C1` [NB-143, 1,1′-((((((5r,7r)-adamantan-2-ylidene)methylene)bis(4,1-phenylene))bis(oxy))bis(hexane-6,1-diyl))bis(3-methylazetidin-3-ol)], the negative logarithm of the IC50 (pIC50) in the series with MCF7 cells (setting [2]) is 5.96.

As to “(S)-1-(6-(4-((Z)-((5S,7S)-adamantan-2-ylidene)(4-chlorophenyl)methyl)phenoxy)hexyl)-1-methyl-1λ^4-piperidin-2-ylium iodide [NB-84]”, the pIC50 in the series on MCF7 cells (setting [3]) is 5.22. For `C[N+]1(CCCCCCOc2ccc(C(=C3C4CC5CC(C4)CC3C5)c3ccc(OCCCCCC[N+]4(C)CCC4)cc3)cc2)CCC1` [NB-137, 1,1′-((((((5r,7r)-adamantan-2-ylidene)methylene)bis(4,1-phenylene))bis(oxy))bis(hexane-6,1-diyl))bis(1-methylazetidin-1-ium) diiodide], the pIC50 in the series on MCF7 cells (setting [2]) was 5.64. Still for that read-out and setting: with `c1cc(C(=C2C3CC4CC(C3)CC2C4)c2ccc(OCCCCCN3CCCCC3)cc2)ccc1OCCCCCN1CCCCC1` [NB-122, 1,1′-((((((5r,7r)-adamantan-2-ylidene)methylene)bis(4,1-phenylene))bis(oxy))bis(pentane-5,1-diyl))dipiperidine] the figure was 5.92; with `OCC[N+]1(CCCCCCOc2ccc(C(=C3C4CC5CC(C4)CC3C5)c3ccc(OCCCCCC[N+]4(CCO)CCCCCC4)cc3)cc2)CCCCCC1` [NB-142, 1,1′-((((((5r,7r)-adamantan-2-ylidene)methylene)bis(4,1-phenylene))bis(oxy))bis(hexane-6,1-diyl))bis(1-(2-hydroxyethyl)azepan-1-ium) diiodide], 5.62.

As for “1-(6-(4-((Z)-((5S,7S)-adamantan-2-ylidene)(4-chlorophenyl)methyl)phenoxy)hexyl)-4-methylpiperazine [NB-64]”, in the series on MCF7 cells (setting [3]), the pIC50 is 5.52. Turning to `Clc1ccc(C(=C2C3CC4CC(C3)CC2C4)c2ccc(OCCCCCCN3CCCCCC3)cc2)cc1` [NB-119, 1-(6-(4-((Z)-((5S,7S)-Adamantan-2-ylidene)(4-chlorophenyl)methyl)phenoxy)hexyl)azepane], the pIC50 in the series with MCF7 cells (setting [2]) is 5.38.

Consider `C[N+]1(CCCCCCOc2ccc(C(=C3C4CC5CC(C4)CC3C5)c3ccc(OCCCCCC[N+]4(C)CCC[C@H]4CO)cc3)cc2)CCC[C@H]1CO` (stereo partly drawn) [NB-139, (1R,1′R,2S,2'S)-1,1′-((((((5r,7r)-adamantan-2-ylidene)methylene)bis(4,1-phenylene))bis(oxy))bis(hexane-6,1-diyl))bis(2-(hydroxymethyl)-1-methylpyrrolidin-1-ium) diiodide], for which the pIC50 with MCF7 cells (setting [2]) is 6.05. As to `c1cn(CCCCCCOc2ccc(C(=C3C4CC5CC(C4)CC3C5)c3ccc(OCCCCCCn4ccnc4)cc3)cc2)cn1` [NB-61, 1,1′-((((((5r,7r)-adamantan-2-ylidene)methylene)bis(4,1-phenylene))bis(oxy))bis(hexane-6,1-diyl))bis(1H-imidazole)], the pIC50 in the series with MCF7 cells (setting [2]) is 5.12. As for `OCCN(CCO)CCCCCCOc1ccc(C(=C2C3CC4CC(C3)CC2C4)c2ccc(OCCCCCCN(CCO)CCO)cc2)cc1` [NB-131, 2,2′,2″,2″′-(((((((5r,7r)-adamantan-2-ylidene)methylene)bis(4,1-phenylene))bis(oxy))bis(hexane-6,1-diyl))bis(azanetriyl))tetrakis(ethan-1-ol)], the pIC50 with MCF7 cells (setting [2]) is 6.05. For the same molecule, the “PK p.o. AUC0-48” value in series [1] (mice, 40 mg/kg p.o.) is on record as “too low to measure”.
